Source: US20220054520A1, “OPHTHALMIC COMPOSITION CONTAINING DIQUAFOSOL OR SALT THEREOF, VINYL-BASED POLYMER AND CELLULOSE-BASED POLYMER” (SANTEN PHARMACEUTICAL CO., LTD., priority 2019, published 2022)

Tested on: rat dorsal root ganglion neurons
Assay: Stimulativeness of diquafosol sodium to peripheral nerves, intracellular calcium fluorescence (FLIPR Calcium 6)
Format: cell-based
Description: The stimulativeness of diquafosol sodium to peripheral nerves in the coexistence of PVP was examined.
Cultured peripheral nerve cells (rat dorsal root ganglion neurons, purchased from Lonza Japan Ltd.) were incubated in a buffer solution (FLIPR Calcium 6 Assay Kit, Molecular Devices, LLC.) including intracellular fluorescent calcium indicator dyes. 40% of the total buffer solution was replaced with each of the aforementioned formulation solutions. The non-stimulation group and the stimulated control group were treated with the buffer solutions instead of the formulation solutions in the same manner. After allowing to stand at room temperature, the fluorescence measurement of the calcium indicator dyes with an elapse of time was started by using a fluorescent plate reader. Diquafosol sodium (final concentration: 0.3%) was added after 60 seconds from the start, and the measurement of fluorescence intensity was continued.
The maximum fluorescence intensity (RFUmax) after addition of diquafosol sodium was calculated relative to the fluorescence intensity (RFU) immediately before the addition as 100%.

O=c1ccn([C@@H]2O[C@H](COP(=O)([O-])OP(=O)([O-])OP(=O)([O-])OP(=O)([O-])OC[C@H]3O[C@@H](n4ccc(=O)[nH]c4=O)[C@H](O)[C@@H]3O)[C@@H](O)[C@H]2O)c(=O)[nH]1.[Na+].[Na+].[Na+].[Na+] [diquafosol sodium, diquafosol tetrasodium salt]
fluorescence intensity / signal of intracellular calcium ions after addition of diquafosol sodium (in words) (peripheral nerve cells exposed to diquafosol sodium 0.3%, with or without formulation solution): rapidly increased | maximum fluorescence intensity (RFUmax) after addition of diquafosol sodium (stimulated control group: buffer solution instead of formulation solution, diquafosol sodium final concentration 0.3%, RFU before addition as 100%): ≥ 103.5%
